The values that follow come from PubChem BioAssay AID687029 (Broad Institute, 2013).

This assay relates to RMG-1 viability, CellTiterGlo ATP luminescence, 96 h. In words: cytotoxicity in PAX8-dependent RMG-1 cells, dose response, cell-based, cherry-pick (AID 687029).

With `C[C@H](CO)N1C[C@H](C)[C@@H](CN(C)S(=O)(=O)c2ccc(Cl)cc2)OCCCC[C@H](C)Oc2ccc(NS(=O)(=O)c3ccc(Cl)cc3)cc2C1=O`, the AC50 was less than 0.26 µM.

For the compound `CCOc1ccc(C(=O)C(CCC(CN(C)C)C(=O)c2ccc(OCC)cc2)CN(C)C)cc1` (stereo not drawn), the AC50 is less than 0.26 µM.

`O=C(NC1CCCCC1)C(c1cccnc1)N(C(=O)CCl)c1ccc(F)cc1` (stereo not drawn): the AC50 was 9.95 µM.

Take `O=S(=O)(NCC1CCCO1)c1cnc(Cl)c(Br)c1` (stereo not drawn): the AC50 is less than 0.26 µM.

For the compound `CC(=O)[C@@]1(O)Cc2c(O)c3c(c(O)c2[C@H](O[C@H]2C[C@H](N)[C@H](O)[C@H](C)O2)C1)C(=O)c1ccccc1C3=O`, the AC50 is 9.48 µM.

With `COc1ccc(C(=O)c2ccc(Cl)c([N+](=O)[O-])c2)cc1`, the AC50 is less than 0.26 µM.

Take `O=C(NCc1ccco1)C1CCCN(S(=O)(=O)c2ccc(Br)cc2)C1` (stereo not drawn): the AC50 is less than 0.26 µM.

Regarding `CCC(C)(O)C(=O)OC1C(=O)OC2CC3C(C)=CC(=O)C(O)C3(C)C3C4(O)OCC23C1C(C)C4O` (stereo not drawn), the AC50 is 19.7 µM.

`CCOC(=O)c1c(C)[nH]c2c1-c1ccccc1C(=O)C2=O`: the AC50 is less than 0.26 µM.

For the compound `O=C(O)c1cccc(COc2ccc3c(c2)CCC3)c1`, the AC50 is less than 0.26 µM.

Consider `Oc1cccc2cc(Nc3ccccc3)cnc12`, for which the AC50 was less than 0.26 µM.

With `CCc1cc(-c2n[nH]c(C)c2-c2nc3ccccc3n2C)c(O)cc1O`, the AC50 was less than 0.26 µM.

Take `Cc1ccccc1CNC(=O)C1CCCN(c2nnc(C)c3c(C)n(-c4ccccc4)nc23)C1` (stereo not drawn): the AC50 was less than 0.26 µM.

Turning to `Cc1ccc(NC(=O)Cn2ncc(Cl)c(Cl)c2=O)cc1S(=O)(=O)N1CCCCC1`, the AC50 is less than 0.26 µM.

In the case of `C#CCN(C[C@@H]1[C@@H](OC(=O)NCc2ccccc2F)[C@@H](OC(=O)NCc2ccccc2F)Cn2c(=O)ccc(=O)n21)S(=O)(=O)c1ccc(C)cc1`, the AC50 is less than 0.26 µM.

Consider `C[C@@H]1CCCCO[C@@H](CN(C)C(=O)Nc2cccc3ccccc23)[C@H](C)CN([C@H](C)CO)C(=O)c2cc(NS(=O)(=O)c3ccccc3)ccc2O1`, for which the AC50 is less than 0.26 µM.

In the case of `Cc1ccc(Cl)cc1N1CCN(C(=O)c2noc(C)c2[N+](=O)[O-])CC1`, the AC50 is less than 0.26 µM.

With `CCOc1ccc(NC(=O)Nc2cc(OCC(F)(F)F)cc(OCC(F)(F)F)c2)cc1`, the AC50 is 9.37 µM.

`COc1ccc(N2C(=O)CC(Sc3nnc(-c4ccccc4)o3)C2=O)cc1` (stereo not drawn): the AC50 was less than 0.26 µM.

Turning to `CN1c2ccc(-c3cccc(F)c3)cc2[C@@H]2[C@@H](CCN2C(=O)Cc2ccccc2)[C@@H]1CO`, the AC50 was 0.479 µM.

In the case of `Cn1c(CCN2CCCC2)nc2cc(NS(=O)(=O)c3ccccc3)ccc21`, the AC50 was less than 0.26 µM.

With `COc1ccc(S(=O)(=O)Nc2ccc3c(c2)C(=O)N([C@@H](C)CO)C[C@H](C)[C@@H](CN(C)Cc2ccc(C(F)(F)F)cc2)OCCCC[C@H](C)O3)cc1`, the AC50 was 0.372 µM.

With `Cc1nc2sc(C(c3ccco3)N3CCN(C(c4ccccc4)c4ccccc4)CC3)c(O)n2n1` (stereo not drawn), the half-maximal activity concentration (AC50) was less than 0.26 µM.

For `Cn1ncc2c(O/N=C(\N)c3ccc(C(F)(F)F)cc3)ncnc21`, the AC50 is less than 0.26 µM.

Turning to `COc1ccc(F)cc1-c1cc(NC=O)c2ncc(-c3cc(OC)c(OC)c(OC)c3)n2c1`, the AC50 was less than 0.26 µM.

Take `CCCn1c(C)cc(C(=O)CN2C(=O)c3ccccc3S2(=O)=O)c1C`: the AC50 is less than 0.26 µM.

In the case of `COc1cccc(CC(=O)Nc2nc3c(s2)C(=O)CC(C)(C)C3)c1`, the AC50 was less than 0.26 µM.

As to `C[C@@H]1CN([C@H](C)CO)S(=O)(=O)c2ccc(C#CC3CCCC3)cc2O[C@@H]1CN(C)C(=O)Cc1ccncc1`, the AC50 was less than 0.26 µM.

As for `COc1ccc(-n2nc3c(N4CCC(C(=O)NCc5cccc(C)c5)CC4)nnc(C)c3c2C)cc1`, the AC50 was less than 0.26 µM.

In the case of `Cc1cccc(N(Cc2cc(=O)[nH]c3ccccc23)C(=O)CCl)c1`, the AC50 was less than 0.26 µM.

Regarding `CCOc1ccc(-n2c(=S)sc3c(=O)[nH]c(SCC(=O)NCC4CCCO4)nc32)cc1` (stereo not drawn), the AC50 was less than 0.26 µM.

Take `CCOC(=O)c1c(-c2ccc(F)cc2)csc1NC(=O)CN1C(=O)NC2(CCCCC2C)C1=O` (stereo not drawn): the AC50 is 12.4 µM.

Consider `FC(F)(F)c1nnc2c(Sc3ccccn3)nc3ccccc3n12`, for which the AC50 was 14.2 µM.

On to `O=c1[nH]c2ccccc2n1C1CCN(C(c2cccs2)c2nnnn2-c2ccc3c(c2)OCCO3)CC1` (stereo not drawn), for which the AC50 is less than 0.26 µM.

Take `COc1ccc(/C=N/NC(=O)c2[nH]c3ccc(Br)cc3c2-c2ccccc2)cc1`: the AC50 was less than 0.26 µM.

With `COc1cc2nc(C3CCC3)nc(N3CCN(c4ccccc4OC)CC3)c2cc1OC`, the AC50 is less than 0.26 µM.

`CC(C)c1cc(C(=O)OCC(=O)N2CCN(C(=O)c3ccco3)CC2)c(O)c(C(C)C)c1`: the AC50 is less than 0.26 µM.

As to `O=C(Nc1cccc(Cl)c1)Nc1nnc(-c2ccncc2)s1`, the concentration at half-maximal activity (AC50) is less than 0.26 µM.

As for `O=C(NC12CC3CC(CC(C3)C1)C2)c1ccc([N+](=O)[O-])o1`, the AC50 is less than 0.26 µM.

For the compound `CC1CN(CC(O)COC(c2ccccc2)c2ccccc2)CC(C)O1` (stereo not drawn), the AC50 was less than 0.26 µM.

For the compound `Cc1ccc(NC(=O)CN(C)C(=O)Cn2ncc(Cl)c(Cl)c2=O)cc1`, the AC50 is less than 0.26 µM.

For the compound `CCCC(=O)NC(c1ccc(C(C)C)cc1)c1ccc2cccnc2c1O` (stereo not drawn), the AC50 is less than 0.26 µM.

In the case of `O=C(c1cc([N+](=O)[O-])ccc1N1CCOCC1)N1CCN(c2ccccc2)CC1`, the AC50 was less than 0.26 µM.

Turning to `Cc1ccsc1/C=N/Nc1cccc(C(=O)O)c1`, the AC50 was 13.2 µM.

As for `COc1ccc(NC(=O)Nc2ccc3c(c2)C(=O)N([C@@H](C)CO)C[C@@H](C)[C@@H](CN(C)CC2CCCCC2)OCCCC[C@@H](C)O3)cc1`, the concentration at half-maximal activity (AC50) was less than 0.26 µM.

`Nc1nc(=S)c2[nH]cnc2[nH]1`: the AC50 is less than 0.26 µM.

On to `CCOc1ccc2nc(N/C(N)=N/C(=S)Nc3ccc(C)c(C)c3)nc(C)c2c1`, for which the AC50 is less than 0.26 µM.

With `CC1CC(C)(O)CC(C(O)CC2CC(=O)NC(=O)C2)C1=O` (stereo not drawn), the AC50 was less than 0.26 µM.

Consider `COc1cc(C=C2C(=O)C=CC2=O)ccc1O`, for which the AC50 is less than 0.26 µM.

For `C[C@@H]1CCCCO[C@@H](CN(C)S(=O)(=O)c2ccc(Cl)cc2)[C@H](C)CN([C@H](C)CO)C(=O)c2cc(NS(=O)(=O)c3ccc(F)cc3)ccc2O1`, the AC50 was 1.72 µM.

Turning to `Cc1nc(Nc2nc(CSc3nc4ccccc4[nH]3)cc(=O)[nH]2)nc2ccccc12`, the AC50 was less than 0.26 µM.

On to `CCSc1cc(N2CCOCC2)nc(-c2ccc(Cl)cc2)n1`, for which the concentration at half-maximal activity (AC50) was less than 0.26 µM.

As to `C[C@@H]1CCCCO[C@@H](CN(C)Cc2ccc(C(F)(F)F)cc2)[C@@H](C)CN([C@@H](C)CO)C(=O)c2cc(NS(=O)(=O)c3ccc(F)cc3)ccc2O1`, the AC50 was 35.5 µM.

Usually AC50 stands for the concentration giving half of the maximal activity seen.
